# Measured values: US10858366B2 (priority 2016, dated 2020)
# Molecular target: RNP_CAL (PB2, PB1, PA, NP, influenza A Luciferase reporter in 293T cells) (Influenza A virus (strain swl A/California/04/2009 H1N1), UniProt C3W5S0)
# Test: cell-based
row,Structure (SMILES),EC50
1,"CCc1cnc2n1C[C@H](C(c1ccccc1)c1ccccc1)n1ccc(=O)c(O)c1-2 [Example 9, (S)-6-benzhydryl-3-ethyl-11-hydroxy-5H-imidazo[1,2-a]pyrido[2,1-c]pyrazin-10(6H)-one]",580 nM
2,"O=c1cnn2c(c1O)-c1nccn1CC2C(c1ccc(Cl)cc1)c1ccc(Cl)cc1 (centres unmarked) [Example 10, 6-(bis(4-chlorophenyl)methyl)-11-hydroxy-5H-imidazo[2′,1′:3,4]pyrazino[1,2-b]pyridazin-10(6H)-one]",320 nM
3,"O=c1cnn2c(c1O)-c1nccn1CC2C(c1cccc(Cl)c1)c1cccc(Cl)c1 (centres unmarked) [Example 11, 6-(bis(3-chlorophenyl)methyl)-11-hydroxy-5H-imidazo[2′,1′:3,4]pyrazino[1,2-b]pyridazin-10(6H)-one]",80 nM
4,"O=c1cnn2c(c1O)-c1nccn1CC2C(c1ccc(F)cc1)c1ccc(F)cc1 (centres unmarked) [Example 12, 6-(bis(4-fluorophenyl)methyl)-11-hydroxy-5H-imidazo[2′,1′:3,4]pyrazino[1,2-b]pyridazin-10(6H)-one]",800 nM
5,"Cc1cnc2n1C[C@H](C(c1ccccc1)c1ccccc1)n1ccc(=O)c(O)c1-2 [Example 13, (S)-6-benzhydryl-11-hydroxy-3-methyl-5H-imidazo[1,2-a]pyrido[2,1-c]pyrazin-10(6H)-one]",310 nM
6,"O=c1cnn2c(c1O)-c1nccn1C[C@@H]2C(c1cccc(Cl)c1)c1cccc(Cl)c1 [Example 15, (S)-6-(bis(3-chlorophenyl)methyl)-11-hydroxy-5H-imidazo [2′,1′:3,4] pyrazino [1,2-b]pyridazin-10(6H)-one]",25 nM
7,"O=c1cnn2c(c1O)-c1nccn1C[C@H]2C(c1cccc(Cl)c1)c1cccc(Cl)c1 [Example 16, (R)-6-(bis(3-chlorophenyl)methyl)-11-hydroxy-5H-imidazo[2′,1′:3,4] pyrazino [1,2-b]pyridazin-10(6H)-one]",820 nM
8,"O=c1cnn2c(c1O)-c1nccn1C[C@@H]2[C@@H](c1ccc(F)cc1)c1cccc(C(F)(F)F)c1 [Example 21, (S)-6-((S)-(4-fluorophenyl)(3-(trifluoromethyl)phenyl)methyl)-11-hydroxy-5,6-dihydro-10H-imidazo[2′,1′:3,4]pyrazino[1,2-b]pyridazin-10-one]",52 nM
9,"O=c1cnn2c(c1O)-c1nccn1C[C@@H]2C(c1ccc(F)cc1)c1ccc(F)cc1 [Example 22, (S)-6-(bis(4-fluorophenyl)methyl)-11-hydroxy-5,6-dihydro-10H-imidazo[2′,1′:3,4]pyrazino[1,2-b]pyridazin-10-one]",82 nM
10,"O=c1cnn2c(c1O)-c1nccn1C[C@@H]2[C@@H](c1ccc(F)cc1)c1ccc(F)c(F)c1 [Example 25, (S)-6-((S)-(3,4-difluorophenyl)(4-fluorophenyl)methyl)-11-hydroxy-5H-imidazo[2′,1′:3,4]pyrazino[1,2-b]pyridazin-10(6H)-one]",56 nM
11,"O=c1cnn2c(c1O)-c1nccn1C[C@@H]2[C@H](c1ccc(F)cc1)c1cccc(F)c1 [Example 26, (S)-6-((R)-(3-fluorophenyl)(4-fluorophenyl)methyl)-11-hydroxy-5,6-dihydro-10H-imidazo[2′,1′:3,4]pyrazino[1,2-b]pyridazin-10-one]",38 nM
12,"Cc1cc(F)ccc1[C@H](c1ccc(F)cc1)[C@H]1Cn2ccnc2-c2c(O)c(=O)cnn21 [Example 27, (S)-6-((S)-(4-fluoro-2-methylphenyl)(4-fluorophenyl)methyl)-11-hydroxy-5,6-dihydro-10H-imidazo[2′,1′:3,4]pyrazino[1,2-b]pyridazin-10-one]",50 nM
13,"CSc1cccc([C@H](c2ccc(F)cc2)[C@H]2Cn3ccnc3-c3c(O)c(=O)cnn32)c1 [Example 28, (S)-6-((S)-(4-fluorophenyl)(3-(methylthio)phenyl)methyl)-11-hydroxy-5,6-dihydro-10H-imidazo[2′,1′:3,4]pyrazino[1,2-b]pyridazin-10-one]",81 nM
14,"O=c1cnn2c(c1O)-c1nccn1C[C@@H]2[C@@H](c1ccc(F)cc1)c1ccccc1Cl [Example 29, (S)-6-((S)-(2-chlorophenyl)(4-fluorophenyl)methyl)-11-hydroxy-5,6-dihydro-10H-imidazo[2′,1′:3,4]pyrazino[1,2-b]pyridazin-10-one]",72 nM
15,"O=c1cnn2c(c1O)-c1nccn1C[C@@H]2[C@@H](c1ccc(F)cc1)c1cccc(Cl)c1 [Example 31, (S)-6-((S)-(3-chlorophenyl)(4-fluorophenyl)methyl)-11-hydroxy-5,6-dihydro-10H-imidazo[2′,1′:3,4]pyrazino[1,2-b]pyridazin-10-one]",37 nM
16,"O=c1cnn2c(c1O)-c1nccn1C[C@@H]2[C@@H](c1ccc(F)cc1)c1ccc(C(F)(F)F)cc1 [Example 32, (S)-6-((R)-(4-fluorophenyl)(4-(trifluoromethyl)phenyl)methyl)-11-hydroxy-5,6-dihydro-10H-imidazo[2′,1′:3,4]pyrazino[1,2-b]pyridazin-10-one]",250 nM

row,Structure (SMILES),EC50
1,"O=c1cnn2c(c1O)-c1nccn1C[C@@H]2[C@@H](c1ccc(F)cc1)c1cc(F)cc(F)c1 [Example 34, (S)-6-((S)-(3,5-difluorophenyl)(4-fluorophenyl)methyl)-11-hydroxy-5H-imidazo[2′,1′:3,4]pyrazino[1,2-b]pyridazin-10(6H)-one]",25 nM
2,"Cc1ccccc1[C@H](c1ccc(F)cc1Br)[C@H]1Cn2ccnc2-c2c(O)c(=O)cnn21 [Example 35, (S)-6-((R)-(2-bromo-4-fluorophenyl)(o-tolyl)methyl)-11-hydroxy-5,6-dihydro-10H-imidazo[2′,1′:3,4]pyrazino[1,2-b]pyridazin-10-one]",50 nM
3,"O=c1cnn2c(c1O)-c1nccn1C[C@@H]2[C@H](c1cccc(F)c1)c1ccc(F)cc1Br [Example 36, (S)-6-((R)-(2-bromo-4-fluorophenyl)(3-fluorophenyl)methyl)-11-hydroxy-5,6-dihydro-10H-imidazo[2′,1′:3,4]pyrazino[1,2-b]pyridazin-10-one]",27 nM
4,"CS(=O)(=O)c1cccc([C@H](c2ccc(F)cc2)[C@H]2Cn3ccnc3-c3c(O)c(=O)cnn32)c1 [Example 42, (S)-6-((S)-(4-fluorophenyl)(3-(methylsulfonyl)phenyl)methyl)-11-hydroxy-5,6-dihydro-10H-imidazo[2′,1′:3,4]pyrazino[1,2-b]pyridazin-10-one]",2800 nM
5,"N#Cc1ccccc1[C@H](c1ccc(F)cc1)[C@H]1Cn2ccnc2-c2c(O)c(=O)cnn21 [Example 44, 2-((S)-(4-fluorophenyl)((S)-11-hydroxy-10-oxo-5,6-dihydro-10H-imidazo[2′,1′:3,4]pyrazino[1,2-b]pyridazin-6-yl)methyl)benzonitrile]",300 nM
6,"N#Cc1ccc([C@H](c2ccc(F)cc2)[C@H]2Cn3ccnc3-c3c(O)c(=O)cnn32)cc1 [Example 45, 4-((R)-(4-fluorophenyl)((S)-11-hydroxy-10-oxo-5,6-dihydro-10H-imidazo[2′,1′:3,4]pyrazino[1,2-b]pyridazin-6-yl)methyl)benzonitrile]",42 nM
7,"O=c1cnn2c(c1O)-c1nc(Br)c(Br)n1C[C@@H]2C(c1ccc(F)cc1)c1ccc(F)cc1 [Example 48, (S)-6-(bis(4-fluorophenyl)methyl)-2,3-dibromo-11-hydroxy-5,6-dihydro-10H-imidazo[2′,1′:3,4]pyrazino[1,2-b]pyridazin-10-one]",4300 nM
8,"N#Cc1cnc2n1C[C@H](C(c1ccc(F)cc1)c1ccc(F)cc1)n1ncc(=O)c(O)c1-2 [Example 49, (S)-6-(bis(4-fluorophenyl)methyl)-11-hydroxy-10-oxo-5,6-dihydro-10H-imidazo[2′,1′:3,4]pyrazino[1,2-b]pyridazine-3-carbonitrile]",820 nM
9,"O=c1cnn2c(c1O)-c1ncc(CO)n1C[C@@H]2C(c1ccc(F)cc1)c1ccc(F)cc1 [Example 50, (S)-6-(bis(4-fluorophenyl)methyl)-11-hydroxy-3-(hydroxymethyl)-5,6-dihydro-10H-imidazo[2′,1′:3,4]pyrazino[1,2-b]pyridazin-10-one]",100 nM
10,"Cc1ccccc1[C@H](c1ccc(F)cc1)[C@H]1Cn2c(CO)cnc2-c2c(O)c(=O)cnn21 [Example 51, (S)-6-((S)-(4-fluorophenyl)(o-tolyl)methyl)-11-hydroxy-3-(hydroxymethyl)-5,6-dihydro-10H-imidazo[2′,1′:3,4]pyrazino[1,2-b]pyridazin-10-one]",90 nM
11,"CC(O)c1cnc2n1C[C@H](C(c1ccccc1)c1ccccc1)n1ccc(=O)c(O)c1-2 (stereo partly drawn) [Example 55, (6S)-6-benzhydryl-11-hydroxy-3-(1-hydroxyethyl)-5H-imidazo[1,2-a]pyrido[2,1-c]pyrazin-10(6H)-one]",1700 nM
12,"O=c1ccn2c(c1O)-c1ncc(CN3CCSCC3)n1C[C@@H]2C(c1ccccc1)c1ccccc1 [Example 62, (S)-6-benzhydryl-11-hydroxy-3-(thiomorpholinomethyl)-5,6-dihydro-10H-imidazo[1,2-a]pyrido[2,1-c]pyrazin-10-one]",640 nM
13,"O=c1ccn2c(c1O)-c1ncc(CNC3CCOCC3)n1C[C@@H]2C(c1ccccc1)c1ccccc1 [Example 65, (S)-6-benzhydryl-11-hydroxy-3-(((tetrahydro-2H-pyran-4-yl)amino)methyl)-5,6-dihydro-10H-imidazo[1,2-a]pyrido[2,1-c]pyrazin-10-one]",3500 nM
14,"C[C@@H](NCc1cnc2n1C[C@H](C(c1ccccc1)c1ccccc1)n1ccc(=O)c(O)c1-2)C(F)(F)F [Example 66, (S)-6-benzhydryl-11-hydroxy-3-((((R)-1,1,1-trifluoropropan-2-yl)amino)methyl)-5,6-dihydro-10H-imidazo[1,2-a]pyrido[2,1-c]pyrazin-10-one]",310 nM
15,"O=C(NC1CC1)c1cnc2n1C[C@H](C(c1ccccc1)c1ccccc1)n1ccc(=O)c(O)c1-2 [Example 70, (S)-6-benzhydryl-N-cyclopropyl-11-hydroxy-10-oxo-5,6-dihydro-10H-imidazo[1,2-a]pyrido[2,1-c]pyrazine-3-carboxamide]",1700 nM
16,"O=C(c1cnc2n1C[C@H](C(c1ccccc1)c1ccccc1)n1ccc(=O)c(O)c1-2)N1CCCC1 [Example 72, (S)-6-benzhydryl-11-hydroxy-3-(pyrrolidine-1-carbonyl)-5,6-dihydro-10H-imidazo[1,2-a]pyrido[2,1-c]pyrazin-10-one]",1700 nM
